# Measured values taken from the supplement of paper PMC10307832.
# How the values were obtained:
# Assay in all cases: relative viability (nuclei count vs DMSO), 5 days (fraction); higher = more cells survive
# [1] = compound: O[C@H]1CC[C@H](Nc2ncc3nc(Nc4c(F)cc(F)cc4F)n([C@H]4CCOC4)c3n2)CC1 [Tanzisertib] + O=C(CCCCCCC(=O)Nc1ccccc1)NO [Vorinostat] (partner 1 µM)
# How it was run: (§1)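 Relative viability was taken as the ratio of nuclei in treated wells to nuclei in vehicle wells. Lung cancer cell lines in 1536-well plates received compounds by pin tool one day after seeding, either one drug alone or a fixed anchor-drug dose plus five library-drug doses (not always all listed) in √10 steps. Nuclei were counted on 4× images after 5 days of treatment, and values are medians of duplicate plates.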
# [2] = compound: C[C@@H](N)c1ccc(C(=O)Nc2ccnc3[nH]ccc23)cc1 + CC(=O)c1c(C)c2cnc(Nc3ccc(N4CCNCC4)cn3)nc2n(C2CCCC2)c1=O [Palbociclib] (partner 0.5 µM)
# How it was run: as §1
# [3] = compound: C1CNCCC1C2=CC(=NN2)C3=CC=NC=C3 + C[C@@H](Oc1cc(-c2cnn(C3CCNCC3)c2)cnc1N)c1c(Cl)ccc(F)c1Cl [Crizotinib] (partner 1 µM)
# How it was run: as §1
Cell Line,relative viability ([1]; first compound 0.08 µM),relative viability ([1]; first compound 0.253 µM),relative viability ([1]; first compound 0.8 µM),relative viability ([1]; first compound 2.53 µM),relative viability ([1]; first compound 8 µM),relative viability ([2]; first compound 0.04 µM),relative viability ([2]; first compound 0.1265 µM),relative viability ([2]; first compound 0.4 µM),relative viability ([2]; first compound 1.265 µM),relative viability ([2]; first compound 4 µM),relative viability ([3]; first compound 0.08 µM),relative viability ([3]; first compound 0.8 µM),relative viability ([3]; first compound 2.53 µM),relative viability ([3]; first compound 8 µM)
NCI-H727,1.18,1.26,1.25,1.04,1.12,0.667,0.714,0.746,0.748,0.798,0.718,1.1,1.05,0.776
HARA,0.558,0.556,,0.385,0.585,0.292,0.271,0.28,0.214,0.248,1.05,1.08,1.05,1.03
NCI-H2228,1.03,0.626,0.777,0.728,0.518,0.808,0.806,0.909,0.352,0.839,0.566,0.428,0.486,0.482
LCLC-97TM1,0.862,0.749,0.638,0.86,0.169,0.276,0.217,0.341,0.257,0.309,0.348,0.429,0.408,0.406
LC-2-ad,0.731,0.69,0.702,0.715,0.493,0.472,0.53,0.458,0.413,0.411,0.491,0.478,0.445,0.456
SK-LU-1,0.848,0.824,0.734,0.9,0.828,0.42,0.44,0.465,0.273,0.338,1.03,0.936,0.989,0.947
EKVX,0.711,0.691,0.852,0.741,0.676,0.413,0.415,0.432,0.38,0.28,1.05,0.807,0.956,0.925
HCC-827,0.747,0.871,0.725,0.853,0.357,,0.442,0.478,0.476,0.433,0.979,0.932,1.01,0.883
NCI-H650,0.404,0.421,0.432,0.45,0.282,,0.341,0.311,,0.327,0.681,0.802,0.929,0.489
CAL-12T,0.896,0.663,0.909,0.893,0.755,0.558,0.438,0.519,0.161,0.428,0.473,0.74,0.716,0.774
NCI-H2342,0.801,0.847,0.816,0.765,0.754,0.513,0.53,0.596,0.498,0.532,,,,
SW 900,,0.604,0.641,0.512,0.382,0.564,0.607,0.547,0.581,0.611,,,,
IA-LM,1.2,0.899,0.912,0.939,0.822,,,,,,0.842,0.839,1.14,0.92
EPLC-272H,0.515,0.35,0.487,0.483,0.358,0.39,0.356,0.384,,0.427,0.922,0.937,0.91,0.867
A-427,0.897,0.833,0.874,0.884,0.77,0.472,0.553,0.388,0.432,0.421,0.874,0.93,0.944,0.846
NCI-H647,0.486,0.569,0.549,0.661,1.1,0.472,0.496,0.417,0.308,0.333,1.05,1.08,1.01,1.06
NCI-H1975,0.743,0.761,0.71,0.704,0.656,0.808,0.673,0.607,0.2,0.321,0.988,1.05,0.963,0.889
NCI-H358,0.764,0.791,0.75,0.65,0.56,0.145,0.134,0.141,0.133,0.145,0.479,0.526,0.633,0.474
PC-3 [JPC-3],0.835,1.18,1.04,0.748,0.445,0.544,0.516,0.53,0.551,0.575,0.941,1.07,0.971,0.953
NCI-H1792,,,,,,0.685,0.698,0.699,0.771,0.627,0.987,0.983,1.06,0.959
NCI-H596,0.533,0.655,0.619,0.711,0.589,,,,,,0.984,1.15,1.04,0.991
RERF-LC-KJ,0.779,0.712,0.743,0.573,0.56,1.05,1.12,1.22,1.23,0.943,0.872,0.894,0.912,0.759
NCI-H322M,0.863,0.961,0.875,0.912,0.75,0.534,0.584,0.526,0.515,0.524,0.851,0.875,0.878,0.955
COR-L 105,0.834,0.893,0.828,0.903,1,0.377,0.399,0.424,0.348,0.371,0.649,0.982,0.799,0.906
NCI-H1993,0.901,0.928,1.1,0.769,0.77,0.688,0.74,,0.595,0.607,0.867,0.876,0.767,0.896
NCI-H1437,0.876,0.896,0.88,0.895,0.97,0.335,0.315,0.386,0.369,0.482,0.866,0.967,0.929,0.883
NCI-H838,0.745,0.73,0.733,0.676,0.651,0.183,0.221,0.229,0.192,0.183,0.844,0.924,0.954,0.796

Cell Line,relative viability ([1]; first compound 0.08 µM),relative viability ([1]; first compound 0.253 µM),relative viability ([1]; first compound 0.8 µM),relative viability ([1]; first compound 2.53 µM),relative viability ([1]; first compound 8 µM),relative viability ([2]; first compound 0.04 µM),relative viability ([2]; first compound 0.1265 µM),relative viability ([2]; first compound 0.4 µM),relative viability ([2]; first compound 1.265 µM),relative viability ([2]; first compound 4 µM),relative viability ([3]; first compound 0.08 µM),relative viability ([3]; first compound 0.8 µM),relative viability ([3]; first compound 2.53 µM),relative viability ([3]; first compound 8 µM)
NCI-H1666,1.03,0.988,1.11,1.01,1.05,0.661,0.63,0.636,0.616,0.668,0.762,0.935,0.989,0.902
NCI-H1944,0.607,0.562,0.633,0.611,0.533,0.37,0.334,0.351,0.387,0.266,1.06,1.08,1.1,1.08
NCI-H2023,0.826,0.502,0.803,0.555,0.625,0.371,0.409,0.424,,0.35,0.427,0.688,0.738,0.709
EBC-1,,,,,,,,,,,0.202,0.219,0.233,0.192
NCI-H1755,0.756,0.791,0.828,0.624,0.79,0.432,0.436,0.437,0.407,0.367,0.967,0.836,0.887,0.776
NCI-H23,0.542,0.596,0.498,0.49,0.474,0.532,0.644,0.545,,0.441,0.431,0.499,0.499,0.518
ABC-1,1.22,1.58,1.15,1.1,0.786,0.662,0.775,0.789,0.976,0.552,0.988,1.12,1.04,1.18
201T,1.03,1.01,0.996,0.988,0.764,0.367,0.342,0.376,0.359,0.415,1.01,1.01,1.02,0.991
NCI-H1734,0.966,0.781,0.756,0.906,0.81,0.316,0.355,0.325,0.338,0.277,0.663,0.687,0.653,0.654
NCI-H520,0.866,0.749,0.789,0.724,0.73,0.218,0.231,0.263,0.254,0.225,0.742,0.921,0.727,0.736
NCI-H1650,0.551,0.601,0.501,0.625,0.491,0.384,0.369,0.319,0.294,0.344,0.43,1.08,1.07,0.963
NCI-H1355,0.722,0.608,0.642,0.67,0.628,0.441,0.422,0.403,0.427,0.393,1.02,1.03,1.12,1.13
NCI-H1915,0.569,0.535,0.46,0.503,0.487,,0.504,0.52,,0.431,0.88,0.906,0.855,0.909
BEN,0.593,0.583,0.613,0.588,0.611,0.483,0.425,0.438,0.587,0.449,0.644,0.87,0.878,0.823
NCI-H3122,1.37,1.09,0.932,1.09,1.12,0.221,0.188,0.23,0.243,0.221,0.303,0.265,0.255,0.283
SK-MES-1,1.27,1.1,1.04,1.07,0.78,0.312,0.365,0.306,0.337,0.271,1.03,0.995,0.992,0.94
HOP-62,0.632,0.599,0.679,0.768,0.605,0.454,0.463,0.449,0.411,0.397,0.682,1.11,0.942,0.978
HCC-366,,0.361,0.386,0.428,0.309,0.474,0.392,0.379,0.455,0.383,0.462,0.559,0.551,0.536
NCI-H1563,,,,,,,,,,,0.644,0.766,0.85,0.941
NCI-H1648,0.553,0.36,0.398,0.571,0.391,0.267,0.34,0.279,0.371,0.414,,,,
NCI-H1299,,,,,,,,,,,0.991,1,0.99,0.9
A549,,,,,,,,,,,0.784,0.849,0.857,0.797
NCI-H1793,0.787,0.789,0.748,0.641,0.551,0.348,0.295,0.355,,0.385,,,,
NCI-H1703,,,,,,,,,,,0.823,0.813,0.824,1.01
NCI-H1395,0.642,1.13,0.768,0.72,0.481,0.583,0.639,0.597,,0.577,,,,
NCI-H522,0.913,0.902,0.773,0.762,0.836,1.03,0.986,1.1,1.02,0.874,,,,
Calu-6,,,,,,,,,,,0.838,0.91,0.833,0.814
